Source: US20030190603A1, “Method and system for predicting therapeutic agent resistance and for defining the genetic basis of drug resistance using neural networks” (priority 2003, published 2003)
Where two headings read alike, the source gives them in different places.

Columns and labels:
HIV-1 [1] = conditions: drug - cut-off, Larder & Harrigan AIDS 2000; cited from earlier work
HIV-1 [2] = conditions: cited from earlier work
[3] = tested on: patient's recombinant virus (HIV-1); assay: Phenotypic susceptibility, MT-4 cell viral cytopathic effect protection assay (fold resistance vs wild-type control virus); assay type: cell-based
Experimental: Phenotypic susceptibility was determined using a MT-4 cell viral cytopathic effect protection assay. See, e.g., Kashiwase et al., Chemotherapy 45(1):48-55 (1999), expressly incorporated herein by reference; Larder et al., Antimicrob. Agents Chemother. 43(8): 1961-1967 (1999). […] The procedure is also described in WO 97/27480.

[4] = HIV-1 mutation 333D/E in addition to M184V

For Cc1c(O)cccc1C(=O)N[C@@H](CSc1ccccc1)[C@H](O)CN1C[C@H]2CCCC[C@H]2C[C@H]1C(=O)NC(C)(C)C [Nelfinavir], the “Biological cut-off (fold resistance)” value (HIV-1 [1]) is listed as 4.0.
For Nc1ccn([C@@H]2CS[C@H](CO)O2)c(=O)n1 [3TC], the “Effect of mutation on resistance” value (HIV-1 [2]; [4]) is listed as “dual AZT/3TC resistance”, the “Effect of mutation on resistance” value (HIV-1 [2]; HIV-1 mutation M184V) is listed as “confers resistance” and the “Drug resistance level (from the phenotypic data)” value (“Drug resistance level” for short) ([3]; test sample 1) is listed as “S/S (A fold resistance of less than or equal to 4 is considered to be)”. For the same compound, the “Drug resistance level” value ([3]; test sample 2) was “R/R (if the value is greater than 10, it is considered to be)”, the “Drug resistance level” value ([3]; test sample 3) was “R/R (if the value is greater than 10, it is considered to be)” and the “Drug resistance level” value ([3]; test sample 4) was “S/S (A fold resistance of less than or equal to 4 is considered to be)”. For the same compound, the “Drug resistance level” value ([3]; test sample 5) was “R/R (if the value is greater than 10, it is considered to be)”, the “Drug resistance level” value ([3]; test sample 6) was “R (if the value is greater than 10, it is considered to be)” and the “Drug resistance level” value ([3]; test sample 7) was “R/R (if the value is greater than 10, it is considered to be)”. The “Drug resistance level” value ([3]; test sample 8) was “R/R (if the value is greater than 10, it is considered to be)”, the “Drug resistance level” value ([3]; test sample 9) was “R/R (if the value is greater than 10, it is considered to be)” and the “Drug resistance level” value ([3]; test sample 10) was “S/S (A fold resistance of less than or equal to 4 is considered to be)”. The “Biological cut-off (fold resistance)” value (HIV-1 [1]) was 4.5.
For Cc1cccc(C)c1OCC(=O)N[C@@H](Cc1ccccc1)[C@@H](O)C[C@H](Cc1ccccc1)NC(=O)[C@H](C(C)C)N1CCCNC1=O [Lopinavir], the “Biological cut-off (fold resistance)” value (HIV-1 [1]) is given as 2.5.
For Cc1cn([C@H]2C[C@H](N=[N+]=[N-])[C@@H](CO)O2)c(=O)[nH]c1=O [AZT, 3′-azido-3′-deoxythymidine], the “Effect of mutation on resistance” value (HIV-1 [2]; [4]) is given as “dual AZT/3TC resistance”, the “Effect of mutation on resistance” value (HIV-1 [2]; HIV-1 mutation M184V) is given as “reverses AZT resistance” and the “Biological cut-off (fold resistance)” value (HIV-1 [1]) is given as 4.0.
In the case of CC(C)Nc1cccnc1N1CCN(C(=O)c2cc3cc(NS(C)(=O)=O)ccc3[nH]2)CC1 [Delavirdine], the “Biological cut-off (fold resistance)” value (HIV-1 [1]) is listed as 10.0.
For CC(C)CN(C[C@@H](O)[C@H](Cc1ccccc1)NC(=O)O[C@H]1CCOC1)S(=O)(=O)c1ccc(N)cc1 [VX-478], the “Effect of mutation on susceptibility in vitro” value (HIV-1 [2]; HIV-1 mutation N88S) is listed as “hypersensitivity” and the “Biological cut-off (fold resistance)” value (HIV-1 [1]) is listed as 2.0.
For Nc1ccn([C@H]2CC[C@@H](CO)O2)c(=O)n1 [DDC], the “Biological cut-off (fold resistance)” value (HIV-1 [1]) is listed as 2.0.
In the case of OC[C@@H]1CC[C@H](n2cnc3c(O)ncnc32)O1 [DDI, 2′,3′-dideoxyinosine], the “Biological cut-off (fold resistance)” value (HIV-1 [1]) is given as 2.0.
For CC(C)(C)NC(=O)[C@@H]1CN(Cc2cccnc2)CCN1C[C@@H](O)C[C@@H](Cc1ccccc1)C(=O)N[C@H]1c2ccccc2C[C@H]1O [Indinavir], the “Biological cut-off (fold resistance)” value (HIV-1 [1]) is given as 3.0.
For O=C1Nc2ccc(Cl)cc2[C@@](C#CC2CC2)(C(F)(F)F)O1 [DMP266], the “Biological cut-off (fold resistance)” value (HIV-1 [1]) is listed as 6.0.
For Cc1ccnc2c1NC(=O)c1cccnc1N2C1CC1 [Nevirapine], the “Biological cut-off (fold resistance)” value (HIV-1 [1]) is given as 8.0.
With Nc1nc(NC2CC2)c2ncn([C@H]3C=C[C@@H](CO)C3)c2n1 [1592 U89] the “Drug resistance level” value ([3]; test sample 1) was “S/S (A fold resistance of less than or equal to 4 is considered to be)”, the “Drug resistance level” value ([3]; test sample 2) was “S (A fold resistance of less than or equal to 4 is considered to be)” and the “Drug resistance level” value ([3]; test sample 3) was “S/S (A fold resistance of less than or equal to 4 is considered to be)”. The “Drug resistance level” value ([3]; test sample 4) was “S/S (A fold resistance of less than or equal to 4 is considered to be)”, the “Drug resistance level” value ([3]; test sample 5) was “S/S (A fold resistance of less than or equal to 4 is considered to be)” and the “Drug resistance level” value ([3]; test sample 6) was “I (greater than 4 and less than 10 is considered to be)”. The “Drug resistance level” value ([3]; test sample 7) was “S/S (A fold resistance of less than or equal to 4 is considered to be)”, the “Drug resistance level” value ([3]; test sample 8) was “I (greater than 4 and less than 10 is considered to be)” and the “Drug resistance level” value ([3]; test sample 9) was “S/S (A fold resistance of less than or equal to 4 is considered to be)”. For the same compound, the “Drug resistance level” value ([3]; test sample 10) was “S/S (A fold resistance of less than or equal to 4 is considered to be)” and the “Biological cut-off (fold resistance)” value (HIV-1 [1]) was 3.0.
In the case of Cc1cn([C@H]2C=C[C@@H](CO)O2)c(=O)[nH]c1=O [D4T], the “Mean fold change of IC50” value ([3]; 92 of 188 test samples with d4T IC50<3-fold) is reported as 1.1 fold, the “Mean fold change of IC50” value ([3]; 96 of 188 test samples with d4T IC50>3-fold) is reported as 7.7 fold and the “Mean fold change of IC50” value ([3]; 1040 of 2286 samples with d4T IC50<3-fold) is reported as 1.2 fold. The “Mean fold change of IC50” value ([3]; 1246 of 2286 samples with d4T IC50>3-fold) was 9.0 fold and the “Biological cut-off (fold resistance)” value (HIV-1 [1]) was 1.75.
In the case of CC(C)(C)NC(=O)[C@@H]1C[C@@H]2CCCC[C@@H]2CN1C[C@@H](O)[C@H](Cc1ccccc1)NC(=O)[C@H](CC(N)=O)NC(=O)c1ccc2ccccc2n1 [Saquinavir], the “Biological cut-off (fold resistance)” value (HIV-1 [1]) is listed as 2.5.
For CC(C)c1nc(CN(C)C(=O)N[C@H](C(=O)N[C@@H](Cc2ccccc2)C[C@H](O)[C@H](Cc2ccccc2)NC(=O)OCc2cncs2)C(C)C)cs1 [Ritonavir], the “Biological cut-off (fold resistance)” value (HIV-1 [1]) is listed as 3.5.
